Data published in patent publication US4359459A, “O-α-D-Multigalactopyranosyl-O-α-D-multiglucopyranosyl-O-β- D” (American Cyanamid Company, priority 1981, dated 1982).
Structures can show the parent of a compound that is named as a salt.

How the values were obtained:
[1] = system: late components of human complement (C3-C9); test: Test Code 035 (C3-C9 inhibitor), lysis of EAC 142; format: biochemical; design: key: N = Negative; settings: in vitro; twofold serial dilution assay
From the text: (§1) An active inhibitor protects C2 from C1 and C4; (ii) Test Code 035 (C3-C9 inhibitor)--This test determines the ability of the late components of human complement (C3-C9) to lyse EAC 142 in the presence of appropriate dilutions of the test compound. An active inhibitor protects EAC 142 from lysis by human C3-C9; (iii) Test Code 036 (C-Shunt inhibitor)--In this test human erythrocytes rendered fragile are lysed in autologous serum via the shunt pathway activated by cobra venom factor in the presence of appropriate dilutions of the test compound. Inhibition of the shunt pathway results in failure of lysis; (iv) Cap 50 Test-- Here, appropriate amounts of the test compound are added to a pool of guinea pig serum in vitro, after which the undiluted serum capillary tube assay of U.S. Pat. No. 3,876,376 is run. The concentration of compound inhibiting 50% is reported; and (v) Guinea Pig Intraperitoneal Test (GPIP)--Guinea Pigs weighing about 300 g are dosed intraperitoneally (i.p.) with 200 mg/kg of the test compound dissolved in saline and adjusted to pH 7-8. […] Percent inhibition is calculated by comparison with simultaneous controls. […]

activated human C1 = molecular target: T1, activated human C1 (Homo sapiens, UniProt P09871); test: Test Code 026 (C1 inhibitor); format: biochemical; settings: in vitro; twofold serial dilution assay, higher well number indicates higher activity
T1 sequence (P09871 438-688 limits assumed): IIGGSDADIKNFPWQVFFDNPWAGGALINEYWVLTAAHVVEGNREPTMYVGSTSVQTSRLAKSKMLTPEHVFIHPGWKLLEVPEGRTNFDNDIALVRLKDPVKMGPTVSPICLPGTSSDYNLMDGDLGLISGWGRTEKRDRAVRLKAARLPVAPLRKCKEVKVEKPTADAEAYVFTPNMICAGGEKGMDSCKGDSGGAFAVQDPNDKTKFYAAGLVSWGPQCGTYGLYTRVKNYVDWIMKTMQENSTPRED
T1 sequence (P09871 16-437 limits assumed): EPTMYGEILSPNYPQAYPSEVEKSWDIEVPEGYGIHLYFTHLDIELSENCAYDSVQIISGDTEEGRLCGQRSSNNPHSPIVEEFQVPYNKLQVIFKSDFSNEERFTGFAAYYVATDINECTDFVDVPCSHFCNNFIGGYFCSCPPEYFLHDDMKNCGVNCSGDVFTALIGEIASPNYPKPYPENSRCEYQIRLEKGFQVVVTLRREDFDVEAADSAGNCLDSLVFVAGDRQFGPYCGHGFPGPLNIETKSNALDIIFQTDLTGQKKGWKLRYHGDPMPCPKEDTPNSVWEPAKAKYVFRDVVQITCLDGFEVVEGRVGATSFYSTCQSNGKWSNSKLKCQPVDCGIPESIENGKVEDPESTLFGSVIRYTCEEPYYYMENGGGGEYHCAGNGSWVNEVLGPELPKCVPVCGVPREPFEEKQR
From the text: as §1

shunt pathway = test: Test Code 036 (C-Shunt inhibitor), lysis of fragile human erythrocytes in autologous serum, cobra venom factor; format: biochemical; settings: in vitro; twofold serial dilution assay, higher well number indicates higher activity
From the text: as §1

complement system = settings: Br. J. Exp. Pathol. 33: 327 (1952); cited from earlier work
[2] = system: hereditary angioneurotic edema; settings: literature reports; cited from earlier work
human serum = settings: both in vitro and in vivo, judged by reduction in total hemolytic complement activity; cited from earlier work
complement activity = test: Guinea Pig Intraperitoneal Test (GPIP); format: in vivo, Guinea Pigs; settings: 200 mg/kg i.p.
From the text: An active inhibitor protects C2 from C1 and C4; (ii) Test Code 035 (C3-C9 inhibitor)--This test determines the ability of the late components of human complement (C3-C9) to lyse EAC 142 in the presence of appropriate dilutions of the test compound. An active inhibitor protects EAC 142 from lysis by human C3-C9; (iii) Test Code 036 (C-Shunt inhibitor)--In this test human erythrocytes rendered fragile are lysed in autologous serum via the shunt pathway activated by cobra venom factor in the presence of appropriate dilutions of the test compound. Inhibition of the shunt pathway results in failure of lysis; (iv) Cap 50 Test-- Here, appropriate amounts of the test compound are added to a pool of guinea pig serum in vitro, after which the undiluted serum capillary tube assay of U.S. Pat. No. 3,876,376 is run. The concentration of compound inhibiting 50% is reported; and (v) Guinea Pig Intraperitoneal Test (GPIP)--Guinea Pigs weighing about 300 g are dosed intraperitoneally (i.p.) with 200 mg/kg of the test compound dissolved in saline and adjusted to pH 7-8. Approximately 0.4 ml blood samples, taken by orbital sinus puncture 30 minutes and one hour after injections, are collected directly into centrifuge tubes; 5 ml blood samples, taken by decapitation 2 hours after injection, are collected directly into diSPo® beakers. The samples are allowed to clot, centrifuged, and the resultant sera are assayed for complement activity using the capillary complement assay. Percent inhibition is calculated by comparison with simultaneous controls. The results of the GPIP appear in Table I together with results of Test Code 026, 035, 036 and Cap 50.

## O=S(=O)(O)OCC1OC(OCC2OC(COS(=O)(=O)O)(OC3OC(COC4OC(COC5OC(COS(=O)(=O)O)C(OS(=O)(=O)O)C(OS(=O)(=O)O)C5OS(=O)(=O)O)C(OS(=O)(=O)O)C(OS(=O)(=O)O)C4OS(=O)(=O)O)C(OS(=O)(=O)O)C(OS(=O)(=O)O)C3OS(=O)(=O)O)C(OS(=O)(=O)O)C2OS(=O)(=O)O)C(OS(=O)(=O)O)C(OS(=O)(=O)O)C1OC1OC(COS(=O)(=O)O)C(OC2OC(COS(=O)(=O)O)C(OS(=O)(=O)O)C(OS(=O)(=O)O)C2OS(=O)(=O)O)C(OS(=O)(=O)O)C1OS(=O)(=O)O [drawing 11, O-α-D-Galactopyranosyl(1→6)-O-α-D-galactopyranosyl(1→6)-O-α-D-glucopyranosyl(1→2)-O-β-D-fructofuranosyl(1→6)-O-α-D-glucopyranosyl(1→4)-O-α-D-glucopyranosyl-α-D-glucopyranoside, tricosakis (H-sulfate), tricosasalt with trimethylamine]
[1]
  C-Late 035* Wells: N
Activated human C1
  Cl 026* Wells: +9 Wells
Shunt pathway
  C-Shunt Inhibition 036* Wells: +5 Wells

## heparin
Complement system
  anti-complementary effect: anti-complementary effect

## NC[C@H]1CC[C@H](C(=O)O)CC1 [tranexamic acid]
[2]
  treatment of hereditary angioneurotic edema: used with success

## pentosanpolysulfoester
Human serum
  anticomplementary activity on human serum: anticomplementary activity

## NCCCCCC(=O)O [epsilon-aminocaproic acid]
[2]
  treatment of hereditary angioneurotic edema: used with success

## O=S(=O)(O)OCC1OC(OCC2OC(COS(=O)(=O)O)(OC3OC(COC4OC(COC5OC(COS(=O)(=O)O)C(OS(=O)(=O)O)C(OS(=O)(=O)O)C5OS(=O)(=O)O)C(OS(=O)(=O)O)C(OS(=O)(=O)O)C4OS(=O)(=O)O)C(OS(=O)(=O)O)C(OS(=O)(=O)O)C3OS(=O)(=O)O)C(OS(=O)(=O)O)C2OS(=O)(=O)O)C(OS(=O)(=O)O)C(OS(=O)(=O)O)C1OC1OC(COS(=O)(=O)O)C(OC2OC(COS(=O)(=O)O)C(OS(=O)(=O)O)C(OS(=O)(=O)O)C2OS(=O)(=O)O)C(OS(=O)(=O)O)C1OS(=O)(=O)O [drawing 12, O-α-D-Galactopyranosyl(1→6)-O-α-D-galactopyranosyl(1.fwd arw.6)-O-α-D-glucopyranosyl(1→2)-O-β-D-fructofuranosyl(1→6)-O-α-D-glucopyranosyl(1→4)-O-α-D-glucopyranosyl-α-D-glucopyranoside, tricosakis (H-sulfate), tricosasodium salt]
Complement activity; serum 30 minutes after injection
  In vivo Activity (Guinea Pigs) % Inhibition Intraperitoneal, 30 minutes: 63%
Complement activity; serum 60 minutes after injection
  In vivo Activity (Guinea Pigs) % Inhibition Intraperitoneal, 60 minutes: 61%
Complement activity; serum 120 minutes after injection
  In vivo Activity (Guinea Pigs) % Inhibition Intraperitoneal, 120 minutes: 67%
[1]
  C-Late 035* Wells: N
Activated human C1
  Cl 026* Wells: +9 Wells
Shunt pathway
  C-Shunt Inhibition 036* Wells: +5 Wells

## Nc1ccc2cc(S(=O)(=O)[O-])cc(O)c2c1N=Nc1ccc(NC(=O)Nc2ccc(N=Nc3c(N)ccc4cc(S(=O)(=O)[O-])cc(O)c34)c(S(=O)(=O)[O-])c2)cc1S(=O)(=O)[O-].[Na+].[Na+].[Na+].[Na+] [chlorazol fast pink, 3,3'-ureylenebis[6-(2-amino-8-hydroxy-6-sulfo-1-naphthylazo)benzenesulfonic acid], tetrasodium salt]
Complement system
  anti-complementary effect: anti-complementary effect
